Reference: patent US9089605B2, “Quinone derivatives, pharmaceutical compositions, and uses thereof” (Indiana University Research and Technology Corporation, priority 2007, dated 2015)
Entries after “also recorded” stand apart in the source; their conditions may differ.

Columns and labels:
[1] = Qualitative solubility in solvents; format: physicochemical; settings: listed solvents
avidin = avidin (Gallus gallus, UniProt P02701); settings: cited from earlier work
Sequence of avidin (P02701 25-152, species assumed): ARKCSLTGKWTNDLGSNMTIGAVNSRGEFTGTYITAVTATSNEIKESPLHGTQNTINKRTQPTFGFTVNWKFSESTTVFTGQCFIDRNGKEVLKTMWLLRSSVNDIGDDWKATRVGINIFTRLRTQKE

## O=C(O)CCCC[C@H]1[C@H]2NC(=O)N[C@H]2CS1(=O)=O [Compound 89, 5-((1R,5S,6S)-3,7,7-trioxo-7-thia-2,4-diazabicyclo[3.3.0]oct-6-yl)pentanoic acid]
[1]
  solubility (qualitative): Insoluble in CH2Cl2, acetone, MeOH, water; also recorded: Soluble in DMSO and NaOH aq
other
  melting point: 255 °C
avidin
  avidin binding weaker than biotin: approximately 3 fold
